Test results from patent US10316017B2, “COT modulators and methods of use thereof” (Gilead Sciences, Inc., priority 2015, dated 2019).
Read-outs that look alike come from different tables or passages of the source.

Columns and labels:
[1] = system: TNFα production in LPS-stimulated human monocytes; test: Cot Monocyte TNFα Cell Based Assay; conditions: Homo sapiens, Monocyte, read-out: EC50 TNF
Outline: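 Human monocytes (5,000 cells/well) pretreated with compound for 1 hour at 37° C (0.5% DMSO), then stimulated with 50 pg/ml LPS for 4 hours. Total TNFα measured by TR-FRET after overnight antibody incubation at room temp, expressed as percent of control between unstimulated and stimulated cells.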

[2] = target: T1, human Cot catalytic domain (30-397 amino acids) (Homo sapiens, UniProt P41279); test: High Throughput Cot Biochemical Assay (KinEASE TR-FRET); conditions: Cot KinEASE TR-FRET, 400 μM ATP; read-out: IC50 HTRF
T1 construct: Purified recombinant human Cot catalytic domain (30-397 amino acids) was purchased from Cama Biosciences; purchased Cama Biosciences (so in the source)
T1 sequence (P41279 30-397): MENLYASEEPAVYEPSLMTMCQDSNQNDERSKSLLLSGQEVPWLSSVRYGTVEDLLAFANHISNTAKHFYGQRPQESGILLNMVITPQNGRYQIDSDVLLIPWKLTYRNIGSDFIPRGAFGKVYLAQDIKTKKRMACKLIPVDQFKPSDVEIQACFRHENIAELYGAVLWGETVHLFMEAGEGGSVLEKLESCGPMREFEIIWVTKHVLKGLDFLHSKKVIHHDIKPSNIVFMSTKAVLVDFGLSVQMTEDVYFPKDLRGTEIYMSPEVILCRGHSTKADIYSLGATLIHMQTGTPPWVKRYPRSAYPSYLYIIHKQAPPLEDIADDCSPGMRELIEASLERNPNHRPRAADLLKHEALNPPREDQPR
Outline: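 Recombinant human Cot catalytic domain (aa 30-397), 5 nM, with 1 μM STK3 peptide and 400 μM ATP in MOPS pH 7.0 buffer with MgOAc, DTT, BSA, NP-40, glycerol, 0.1% DMSO. Phosphorylated XL665-peptide detected by Eu-[…] antibody TR-FRET.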

[3] = LPS-stimulated human monocytes, TNFα TR-FRET

Row | SMILES | EC50 [1, 3] | IC50 [2] | EC50 [1]
1 | [2H][C@](Nc1cc(Cl)c2ncc(C#N)c(NCC(C)(C)C)c2c1)(c1ccc(Cl)cc1)c1cn(C2CCN(C3CC3)CC2)nn1 [Example 982, (S)-8-chloro-6-(((4-chlorophenyl)(1-(1-cyclopropylpiperidin-4-yl)-1H-1,2,3-triazol-4-yl)methyl-d)amino)-4-(neopentylarnino) quinoline-3-carbonitrile] | 540 nM | 23 nM | –
2 | CC(C)(C)CNc1c(C#N)cnc2c(C#N)cc(N[C@@H](c3ccc(F)cc3)c3cn(C4(c5ccncc5)CC4)nn3)cc12 [Example 983, (S)-6-(((4-fluorophenyl)(1-(1-(pyridin-4-yl)cyclopropyl)-1H-1,2,3-triazol-4-yl)methyl)amino)-4-(neopentylamino) quinoline-3,8-dicarbonitrile] | 39 nM | 11 nM | –
3 | CC(C)(C)CNc1c(C#N)cnc2c(C#N)cc(N[C@@H](c3ccc(F)cc3)c3cn(C4(c5cnccn5)CC4)nn3)cc12 [Example 984, (S)-6-(((4-fluorophenyl)(1-(1-(pyrazin-2-yl)cyclopropyl)-1H-1,2,3-triazol-4-yl)methyl)amino)-4-(neopentylamino)quinoline-3,8-dicarbonitrile] | 93 nM | 125 nM | –
4 | CC(C)(C)CNc1c(C#N)cnc2c(C#N)cc(N[C@@H](c3ccc(F)cc3)c3cn(C4(C(N)=O)CCC4)nn3)cc12 [Example 985, (S)-1-(4-(((3,8-dicyano-4-(neopentylamino)quinolin-6-yl)amino)(4-fluorophenyl)methyl)-1H-1,2,3-triazol-1-yl)cyclobutane-1-carboxamide] | 119 nM | 4 nM | –
5 | N#Cc1cnc2c(Cl)cc(N[C@@H](c3ccccc3)c3cn(C4CC4)nn3)cc2c1N[C@@H](c1ccccc1)C(F)(F)CO [Example 986, 8-chloro-6-(((S)-(1-cyclopropyl-1H-1,2,3-triazol-4-yl)(phenyl)methyl)amino)-4-(((S)-2,2-difluoro-3-hydroxy-1-phenylpropyl)amino)quinoline-3-carbonitrile] | 222 nM | 13 nM | –
6 | CC(C)(C)CNc1c(C#N)cnc2c(C#N)cc(N[C@@H](c3ccc(F)cc3)c3cn(C4(c5cccnn5)CC4)nn3)cc12 [Example 987, (S)-6-(((4-fluorophenyl)(1-(1-(pyridazin-3-yl)cyclopropyl)-1H-1,2,3-triazol-4-yl)methyl)amino)-4-(neopentylamino)quinoline-3,8-dicarbonitrile] | 69 nM | 32 nM | –
7 | [2H][C@](Nc1cc(Br)c2ncc(C#N)c(NCC(C)(C)C)c2c1)(c1ccc(F)cc1)c1cn(CC(O)CNC(C)(C)C)nn1 (stereo partly drawn) [Example 988, 8-bromo-6-(((1S)-(1-(3-(tert-butylamino)-2-hydroxypropyl)-1H-1,2,3-triazol-4-yl)(4-fluorophenyl)methyl-d)amino)-4-(neopentylamino)quinoline-3-carbonitrile] | 334 nM | 14 nM | –
8 | CC(C)(C)CNc1c(C#N)cnc2c(Cl)cc(N[C@@H](c3ccc(F)cc3)c3cn(C4(C#N)CC4)nn3)cc12 [Example 989, (S)-8-chloro-6-(((1-(1-cyanocyclopropyl)-1H-1,2,3-triazol-4-yl)(4-fluorophenyl)methyl)amino)-4-(neopentylamino)quinoline-3-carbonitrile] | 111 nM | 12 nM | –
9 | CC(C)(C)CNc1c(C#N)cnc2c(Cl)cc(N[C@@H](c3ccc(F)cc3)c3cn(C4(C)CC4)nn3)cc12 [Example 990, (S)-8-chloro-6-(((4-fluorophenyl)(1-(1-methylcyclopropyl)-1H-1,2,3-triazol-4-yl)methyl)amino)-4-(neopentylamino)quinoline-3-carbonitrile] | 76 nM | 12 nM | –
10 | CC(C)(C)CNc1c(C#N)cnc2c(Cl)cc(N[C@@H](c3ccc(F)cc3)c3cn(C4(c5ccccn5)CC4)nn3)cc12 [Example 991, (S)-8-chloro-6-(((4-fluorophenyl)(1-(1-(pyridin-2-yl)cyclopropyl)-1H-1,2,3-triazol-4-yl)methyl)amino)-4-(neopentylamino)quinoline-3-carbonitrile] | 136 nM | 34 nM | –
11 | CC(C)(C)CNc1c(C#N)cnc2c(Cl)cc(N[C@@H](c3ccc(F)cc3)c3cn(C4(C(N)=O)CCC4)nn3)cc12 [Example 992, (S)-1-(4-(((8-chloro-3-cyano-4-(neopentylamino)quinolin-6-yl)amino)(4-fluorophenyl)methyl)-1H-1,2,3-triazol-1-yl) cyclobutane-1-carboxamide] | 76 nM | 5 nM | –
12 | [2H][C@](Nc1cc(C#N)c2ncc(C#N)c(NCC(C)(C)C)c2c1)(c1ccc(F)cc1)c1cn(CCC2CN2C(C)(C)C)nn1 (stereo partly drawn) [Example 993, 6-(((1S)-(1-(2-(1-(tert-butyl)aziridin-2-yl)ethyl)-1H-1,2,3-triazol-4-yl)(4-fluorophenyl)methyl-d)amino)-4-(neopentylamino) quinoline-3,8-dicarbonitrile] | – | 32 nM | 3610 nM
13 | [2H][C@](Nc1cc(C#N)c2ncc(C#N)c(NCC(C)(C)C)c2c1)(c1ccc(F)cc1)c1cn(-c2cccnc2)nn1 [Example 994, (S)-6-(((4-fluorophenyl)(1-(pyridin-3-yl)-1H-1,2,3-triazol-4-yl)methyl-d)amino)-4-(neopentylamino) quinoline-3,8-dicarbonitrile] | 103 nM | 33 nM | –
14 | Cc1c(C#N)cccc1[C@H](Nc1cc(C#N)c2ncc(C#N)c(NCC(C)(C)C)c2c1)c1cn(C2(C(F)(F)F)CC2)nn1 [Example 995, (S)-6-(((3-cyano-2-methylphenyl)(1-(1-(trifluoromethyl)cyclopropyl)-1H-1,2,3-triazol-4-yl)methyl)amino)-4-(neopentylamino)quinoline-3,8-dicarbonitrile] | 49 nM | 3 nM | –
15 | CC(C)(C)CNc1c(C#N)cnc2c(Cl)cc(N[C@@H](c3ccc(F)cc3)c3cn(C4(C(N)=O)CC4)nn3)cc12 [Example 996, (S)-1-(4-(((8-chloro-3-cyano-4-(neopentylamino)quinolin-6-yl)amino)(4-fluorophenyl)methyl)-1H-1,2,3-triazol-1-yl)cyclopropane-1-carboxamide] | 109 nM | 6 nM | –
16 | CC(C)(C)CNc1c(C#N)cnc2c(Cl)cc(N[C@@H](c3ccc(F)cc3)c3cn(C4(c5cccnc5)CC4)nn3)cc12 [Example 997, (S)-8-chloro-6-(((4-fluorophenyl)(1-(1-(pyridin-3-yl)cyclopropyl)-1H-1,2,3-triazol-4-yl)methyl)amino)-4-(neopentylamino) quinoline-3-carbonitrile] | 61 nM | 48 nM | –
17 | CC(C)(C)CNc1c(C#N)cnc2c(Cl)cc(N[C@@H](c3ccc(F)cc3)c3cn(C4(C(F)(F)F)CCC4)nn3)cc12 [Example 998, (S)-8-chloro-6-(((4-fluorophenyl)(1-(1-(trifluoromethyl)cyclobutyl)-1H-1,2,3-triazol-4-yl)methyl)amino)-4-(neopentylamino)quinoline-3-carbonitrile] | 250 nM | 53 nM | –
18 | CC(C)(C)CNc1c(C#N)cnc2c(F)cc(N[C@H](c3cn(C4(C(N)=O)CC4)nn3)c3ccccc3Cl)cc12 [Example 999, (S)-1-(4-((2-chlorophenyl)((3-cyano-8-fluoro-4-(neopentylamino)quinolin-6-yl)amino)methyl)-1H-1,2,3-triazol-1-yl)cyclopropane-1-carboxamide] | 306 nM | 63 nM | –
19 | CC(C)(C)CNc1c(C#N)cnc2c(F)cc(N[C@H](c3cn(C4(C#N)CC4)nn3)c3ccccc3Cl)cc12 [Example 1000, (S)-6-(((2-chlorophenyl)(1-(1-cyanocyclopropyl)-1H-1,2,3-triazol-4-yl)methyl)amino)-8-fluoro-4-(neopentylamino)quinoline-3-carbonitrile] | 177 nM | 58 nM | –
20 | CC(C)(C)CNc1c(C#N)cnc2c(F)cc(N[C@H](c3cn(C(F)(F)C(N)=O)nn3)c3ccccc3Cl)cc12 [Example 1001, (S)-2-(4-((2-chlorophenyl)((3-cyano-8-fluoro-4-(neopentylamino)quinolin-6-yl)amino)methyl)-1H-1,2,3-triazol-1-yl)-2,2-difluoroacetamide] | 344 nM | 22 nM | –
21 | CC(C)(C)CNc1c(C#N)cnc2c(Cl)cc(N[C@@H](c3ccc(F)cc3)c3cn(CC(F)F)nn3)cc12 [Example 1002, (S)-8-chloro-6-(((1-(2,2-difluoroethyl)-1H-1,2,3-triazol-4-yl) (4-fluorophenyl)methyl)amino)-4-(neopentylamino) quinoline-3-carbonitrile] | 202 nM | 14 nM | –
22 | CC(C)(C)CNc1c(C#N)cnc2c(Cl)cc(N[C@H](c3cn(C4CC4)nn3)c3cccc4ccccc34)cc12 [Example 1003, (S)-8-chloro-6-(((1-cyclopropyl-1H-1,2,3-triazol-4-yl)(naphthalen-1-yl)methyl)amino)-4-(neopentylamino)quinoline-3-carbonitrile] | 227 nM | 19 nM | –
23 | [2H][C@@](Nc1cc(C#N)c2ncc(C#N)c(NCC(C)(C)C)c2c1)(c1cn(-c2cccnc2)nn1)c1ccccc1Cl [Example 1004, (S)-6-(((2-chlorophenyl)(1-(pyridin-3-yl)-1H-1,2,3-triazol-4-yl)methyl-d)amino)-4-(neopentylamino)quinoline-3,8-dicarbonitrile] | ≥ 1000 nM | 33 nM | –
